Source: patent US20110117106A1, “USES OF CALPAIN INHIBITORS TO INHIBIT INFLAMMATION” (priority 2008, published 2011)
Entries after “also recorded” stand apart in the source; their conditions may differ. Where a SMILES comes first, the peptide text is derived from it. [ ]: non-standard residue; d: D form. Nle = CCCC[C@H](N)C(=O)O

Experiments:
[1] = system: occludin cleavage by calpain (45 kDa occludin cleavage product); test: Occludin cleavage: immunoprecipitation and immunoblot in 1HAEo- cells; assay type: cell-based, human; conditions: for Generation of occludin cleavage product in presence of inhibitor: 6 μM BAPTA/AM, 20 μM ALLN, 20 μM GM6001, 25 μM Z-DEVD-FMK
Protocol: (§1) 1HAEo-cells or SAECs were grown to confluence on 10 cm plates, stimulated with heat killed PAO1 (10^7 CFU) or P3C (15 μg/ml), and whole cell lysates made using 60 mM n-octyl-β-D-glucopyranoside (OGP) in TBS (0.1 M Tris-HCl and 0.15 M NaCl, pH 7.8) containing Complete Mini protease inhibitor tablets (Roche), 1 mM sodium orthovanadate and 100 mM sodium fluoride. Monoclonal anti-E-cadherin (BD Pharmingen), polyclonal anti-pan calpain (Santa Cruz Biotechnologies) or monoclonal anti-occludin (Invitrogen/Zymed) antibodies were used for immunoprecipitations followed by the addition of Protein G Agarose beads (Invitrogen) (Chun and Prince, 2006). Immunodetection was performed using monoclonal anti-E-cadherin, polyclonal anti-occludin, anti-pan calpain, anti-calpain 1 and anti-calpain 2 antibodies (Santa Cruz Biotechnology).
1HAEo-cells were transiently transfected with scrambled (control) or calpain 1 and 2 siRNA Smart pool oligos (Dharmacon) (FIGS. 11 and 12). Transfection was carried out using an Amaxa Nucleofector following manufacturer's instructions. Briefly, 10^6 1HAEo-cells were electroporated in 100 μl Buffer L with 1.5 μg of scrambled or siRNA oligo and transferred into pre-warmed 6 well tissue culture dishes. Cells were incubated at 37° C., 5% CO2 for 48 hours before performing experiments.

[2] = system: NF-κB activation, IL-8 production; test: NF-κB activation and IL-8 production in airway cells; assay type: cell-based; conditions: cells treated with BAPTA/AM to chelate intracellular Ca2+
[3] = system: SARS-associated coronavirus; conditions: one isolate of the coronavirus; cited from earlier work
[4] = system: occludin, E-cadherin and calpain localization in 16HBE cells; test: Confocal imaging of junctional proteins and calpain in polarized 16HBE cells; assay type: cell-based, human; conditions: for Co-localization of calpain and E-cadherin: 1 hr stimulation; for Distribution of occludin and E-cadherin at cell junctions: 6 hr exposure
Protocol: (§2) 16HBE cells were grown on 3 μm pore size Transwell-Clear filters (Corning-Costar) with an air-liquid interface to form polarized monolayers. For confocal imaging, cells were fixed with 4% paraformaldehyde, blocked with 5% normal donkey serum and incubated at 4° C. overnight with the polyclonal pan-calpain (Santa Cruz Biotechnology), monoclonal occludin (Invitrogen/Zymed) and/or monoclonal E-cadherin (BD Pharmingen) antibodies. Alexa Fluor 594 conjugated and Alexa Fluor 488 conjugated secondary antibodies (Invitrogen/Molecular Probes) were added at room temperature for 1 h. After washing, filters were removed from Transwells using a scalpel, mounted with Vectashield with DAPI (Vector Laboratories) onto glass slides and imaged using a Zeiss LSM 510 Meta scanning confocal microscope. For biotin labeling experiments 1 mg/ml EZ-Link Sulfo-NHS-LC-Biotin was added apically for 30 min at 4° C. before fixing the cells. Alexa Fluor 555 conjugated streptavidin (Molecular Probes) was added for detection of biotin.

[5] = system: E-cadherin cleavage by calpain (100 kDa E-cadherin cleavage product); test: E-cadherin cleavage: immunoblot in 1HAEo- cells; assay type: cell-based, human; conditions: airway cells, 4 hr stimulation
Protocol: as §1

[6] = system: epithelial cell junctions of polarized 16HBE cells; test: Biotin labeling and confocal microscopy of polarized 16HBE monolayers; assay type: cell-based, human; conditions: 4 h incubation
Protocol: as §2

polarized 16HBE cells [7] = test: Bacterial transmigration assay
Protocol: Polarized 16HBE cells were pretreated with media alone, heat killed PAO1 (10^7 CFU), P3C (15 μg/ml), or thapsigargin (0.1 μM) for 4 h. Live PAO1 (2×10^7 CFU) were added apically for 1 h and media from the basal compartment collected and plated on LB agar plates. Bacterial transmigration across monolayers pretreated with 0.02% EGTA was used as a positive control.

calpain = test: Calpain assay with cell permeable fluorogenic calpain substrate (Boc-LM-CMAC); assay type: cell-based, human; conditions: 1HAEo- cells and SAEC
Protocol: Confluent monolayers of 1HAEo-cells or SAECs were loaded with 20 μM t-BOC-L-leucine-L-methionine amide (Boc-LM-CMAC), a calpain specific membrane permeable fluorogenic substrate. Cells were stimulated with heat killed PAO1 (10^7 CFU) or P3C (15 μg/ml) and fluorescence was quantified at ex 360 nm and em 465 nm with a Spectrafluor Plus fluorimeter (Tecan).

polarized 16HBE cells [8] = test: Transepithelial resistance and dextran permeability assays; assay type: cell-based, human
Protocol: Polarized 16HBE cells grown in 12 mm Transwell-Clear filters (Corning-Costar) were stimulated apically with 10^7 CFU of heat killed PAO1. Transepithelial resistance readings were taken using a Millipore resistance reader which applies a 20 μA square wave alternating current across the monolayers at 12.5 Hz. The resistance of Transwell inserts without cells was used as a baseline control. After 5 h of stimulation, Alexa Fluor 488 labeled dextran (10,000 MW) was added apically for 1 h and fluorescence in the basal compartment monitored at ex 485, em 535 with a SpectraFluor Plus fluorimeter (Tecan). As a positive control, cells were treated apically and basolaterally for 1 h with 0.02% EGTA, an extracellular Ca^2+ chelator which increases paracellular permeability by disrupting cadherin mediated cell-cell adhesion.

calpain 2 mRNA = test: Real time PCR of calpains and calpastatin in 1HAEo- cells
E-cadherin, P12830 = target: T1, E-cadherin, P12830
T1 chain: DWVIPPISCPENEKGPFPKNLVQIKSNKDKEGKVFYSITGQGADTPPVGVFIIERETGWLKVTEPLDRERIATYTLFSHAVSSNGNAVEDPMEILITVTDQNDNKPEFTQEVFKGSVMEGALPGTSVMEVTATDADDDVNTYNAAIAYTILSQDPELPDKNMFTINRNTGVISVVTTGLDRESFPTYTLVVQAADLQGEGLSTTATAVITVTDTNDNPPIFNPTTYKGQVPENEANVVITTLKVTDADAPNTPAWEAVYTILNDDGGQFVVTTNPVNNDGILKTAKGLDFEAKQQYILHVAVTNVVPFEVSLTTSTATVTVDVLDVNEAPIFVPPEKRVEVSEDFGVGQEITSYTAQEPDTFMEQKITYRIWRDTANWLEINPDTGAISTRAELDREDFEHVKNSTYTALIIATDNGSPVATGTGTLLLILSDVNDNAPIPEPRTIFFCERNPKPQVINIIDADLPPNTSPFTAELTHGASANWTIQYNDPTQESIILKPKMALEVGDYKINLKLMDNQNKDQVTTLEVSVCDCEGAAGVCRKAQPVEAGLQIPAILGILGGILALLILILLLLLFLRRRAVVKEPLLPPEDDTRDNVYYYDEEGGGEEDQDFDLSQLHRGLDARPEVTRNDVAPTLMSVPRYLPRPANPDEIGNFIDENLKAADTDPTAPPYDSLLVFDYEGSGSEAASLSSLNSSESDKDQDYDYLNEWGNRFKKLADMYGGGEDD

occludin, Q16625 = target: T2, occludin, Q16625
T2 chain: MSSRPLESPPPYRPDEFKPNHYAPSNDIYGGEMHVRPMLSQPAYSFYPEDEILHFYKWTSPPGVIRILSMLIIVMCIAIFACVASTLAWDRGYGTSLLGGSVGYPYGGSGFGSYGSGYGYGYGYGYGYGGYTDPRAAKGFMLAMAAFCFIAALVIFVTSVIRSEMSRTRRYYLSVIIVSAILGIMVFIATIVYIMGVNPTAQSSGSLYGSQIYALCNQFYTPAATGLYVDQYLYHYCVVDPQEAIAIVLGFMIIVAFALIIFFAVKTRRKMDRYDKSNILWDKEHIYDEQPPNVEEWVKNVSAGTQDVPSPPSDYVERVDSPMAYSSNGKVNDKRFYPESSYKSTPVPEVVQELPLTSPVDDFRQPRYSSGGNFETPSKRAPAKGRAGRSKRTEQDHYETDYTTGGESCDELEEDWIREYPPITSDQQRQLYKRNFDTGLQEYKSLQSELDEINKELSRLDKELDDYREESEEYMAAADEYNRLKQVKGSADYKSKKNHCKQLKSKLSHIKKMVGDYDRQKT

**Q.** For `CCCC[C@@H](C=O)NC(=O)[C@H](CC(C)C)NC(=O)[C@H](CC(C)C)NC(C)=O` [ALLN, N-acetyl-leucyl-leucyl-norleucinal] (Ac-Leu-Leu-[Nle]-aldehyde), which “Generation of occludin cleavage product in presence of inhibitor” value (from here on “Generation … of inhibitor”) [1] is on record?
**A.** The value was “blocked generation of the occludin cleavage product”.

**Q.** Which “Generation … of inhibitor” value [1] does the source give for `CC(=O)OCOC(=O)CN(CC(=O)OCOC(C)=O)c1ccccc1OCCOc1ccccc1N(CC(=O)OCOC(C)=O)CC(=O)OCOC(C)=O` [BAPTA/AM] here?
**A.** Its value is “substantially decreased”.

**Q.** What about the “Distal proinflammatory signaling (NF-κB activation, IL-8 production)” value [2] of the same molecule?
**A.** The value was “unable to activate distal proinflammatory signaling”.

**Q.** Which “Generation … of inhibitor” value [1] does the source give for `CNC(=O)[C@H](Cc1c[nH]c2ccccc12)NC(=O)[C@@H](CC(=O)NO)CC(C)C` [GM6001] here?
**A.** The value was “neither the general matrix metalloproteinase inhibitor GM6001 nor the caspase inhibitor Z-DEVD-FMK blocked”.

**Q.** With `NC(=O)c1ncn([C@@H]2O[C@H](CO)[C@@H](O)[C@H]2O)n1` [Ribavirin] as the molecule, how does the “Virus growth or cell-to-cell spread” value [3] read?
**A.** Its value is “does not inhibit”.

**Q.** For `COC(=O)CC[C@H](NC(=O)[C@H](CC(=O)OC)NC(=O)OCc1ccccc1)C(=O)N[C@H](C(=O)N[C@@H](CC(=O)OC)C(=O)CF)C(C)C` [Z-DEVD-FMK], which “Generation … of inhibitor” value [1] is on record?
**A.** Its value is “neither the general matrix metalloproteinase inhibitor GM6001 nor the caspase inhibitor Z-DEVD-FMK blocked”.

**Q.** Which “Co-localization of calpain and E-cadherin” value [4] does the source give for `C/C=C(/C)C(=O)O[C@H]1C(C)=C2[C@H]([C@@H]1OC(=O)CCCCCCC)[C@@](C)(OC(C)=O)C[C@H](OC(=O)CCC)[C@@]1(O)[C@H]2OC(=O)[C@@]1(C)O` [thapsigargin] here?
**A.** The value was “increased; also recorded: induced mobilization and co-localization of calpain with E-cadherin”.

**Q.** What about the “100 kDa E-cadherin cleavage product after stimulation” value [5] of the same molecule?
**A.** Its value is “generation of a 100 kDa E-cadherin cleavage product”.

**Q.** And the “Penetration of biotin between cells of polarized monolayer” value [6]?
**A.** The value was “resulted in the penetration of biotin; also recorded: increase in accessibility of the junctions to biotin”.

**Q.** With Pam3Cys-Ser-Lys4 [P3C] as the molecule, how does the “Co-localization of calpain and E-cadherin” value [4] read?
**A.** The value was “increased; also recorded: co-localizing with E-cadherin”.

**Q.** And the “Co-localization of calpain and occludin” value ([4]; 1 h stimulation)?
**A.** The value was “Increased co-localization; also recorded: co-localized with membrane-associated occludin; also recorded: Increased colocalization”.

**Q.** And the “Distribution of occludin and E-cadherin at cell junctions” value [4]?
**A.** The value was “dramatic loss; also recorded: altered”.

**Q.** What about the “Distribution of occludin and E-cadherin at cell junctions” value ([4]; listed as PC3) of the same molecule?
**A.** The value was “altered”.

**Q.** What about the “45 kDa occludin cleavage product after stimulation” value ([1]; 1HAEo- and SAEC, 1 hour post stimulation) of the same molecule?
**A.** The value was “readily identified”.

**Q.** And the “Bacterial invasion across the monolayer” value (polarized 16HBE cells [7])?
**A.** Its value is “no changes”.

**Q.** And the “Calpain activity after exposure to the stimulus” value (calpain)?
**A.** The value was “significantly increased; also recorded: sufficient to activate calpain”.

**Q.** And the “Calpain activity after exposure to the stimulus” value (calpain; listed as Pam3Cys)?
**A.** Its value is “activates calpain 2”.

**Q.** What about the Transepithelial resistance (polarized 16HBE cells [8]) of the same molecule?
**A.** The Transepithelial resistance was “no changes”.

**Q.** And the “100 kDa E-cadherin cleavage product after stimulation” value [5]?
**A.** Its value is “generation of a 100 kDa E-cadherin cleavage product”.

**Q.** What about the “Penetration of biotin between cells of polarized monolayer” value [6] of the same molecule?
**A.** The value was “resulted in the penetration of biotin; also recorded: increase in accessibility of the junctions to biotin”.

**Q.** What about the “Transcription of calpain 2” value (calpain 2 mRNA) of the same molecule?
**A.** The value was “increased”.

B1: exogenous human calpain 1 (protein)
chain: SEEIITPVYCTGVSAQVQKQRARELGLGRHENAIKYLGQDYEQLRVRCLQSGTLFRDEAFPPVPQSLGYKDLGPNSSKTYGIKWKRPTELLSNPQFIVDGATRTDICQGALGDCWLLAAIASLTLNDTLLHRVVPHGQSFQNGYAGIFHFQLWQFGEWVDVVVDDLLPIKDGKLVFVHSAEGNEFWSALLEKAYAKVNGSYEALSGGSTSEGFEDFTGGVTEWYELRKAPSDLYQIILKALERGSLLGCSIDISSVLDMEAITFKKLVKGHAYSVTGAKQVNYRGQVVSLIRMRNPWGEVEWTGAWSDSSSEWNNVDPYERDQLRVKMEDGEFWMSFRDFMREFTRLEICNLTPDALKSRTIRKWNTTLYEGTWRRGSTAGGCRNYPATFWVNPQFKIRLDETDDPDDYGDRESGCSFVLALMQKHRRRERRFGRDMETIGFAVYEVPPELVGQPAVHLKRDFFLANASRARSEQFINLREVSTRFRLPPGEYVVVPSTFEPNKEGDFVLRFFSEKSAGTVELDDQIQANLPDEQVLSEEEIDENFKALFRQLAGEDMEISVKELRTILNRIISKHKDLRTKGFSLESCRSMVNLMDRDGNGKLGLVEFNILWNRIRNYLSIFRKFDLDKSGSMSAYEMRMAIESAGFKLNKKLYELIITRYSEPDLAVDFDNFVCCLVRLETMFRFFKTLDTDLDGVVTFDLFKWLQLTMFA
**Q.** Which results are given for B1?
**A.** in vitro degradation (cleavage) of the immunoprecipitated protein by Ca2+-activated exogenous calpain, immunoblot (E-cadherin, P12830): exogenous calpain activated by the addition of Ca2+ degraded occludin and E-cadherin, but not claudin-1 or JAM-1; in vitro degradation (cleavage) of the immunoprecipitated protein by Ca2+-activated exogenous calpain, immunoblot (occludin, Q16625): exogenous calpain activated by the addition of Ca2+ degraded occludin and E-cadherin, but not claudin-1 or JAM-1
